Experiments:
Assay type in all cases: in vivo
Spodoptera littoralis [1] = test: Spodoptera littoralis (Egyptian cotton leaf worm), sprayed cotton leaf discs; settings: foliar, 72 h, application rate 200 ppm, L1 larvae, 3 days after infestation, read-out: control (mortality, anti-feeding effect, growth inhibition)
Outline: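 Five first-instar larvae placed on dried cotton leaf discs (on agar) previously sprayed with aqueous dilutions of 10'000 ppm DMSO stocks. Scored at 3 days against untreated discs for mortality, feeding inhibition and growth inhibition; any category above untreated counts as control.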

Tetranychus urticae = Tetranychus urticae (two-spotted spider mite): feeding/contact activity; settings: 192 h, application rate 200 ppm, mixed population (mobile stages), 8 days after infestation, read-out: mortality
Procedure: Bean leaf discs on agar in 24-well microtiter plates were sprayed with aqueous test solutions prepared from 10'000 ppm DMSO stock solutions. After drying the leaf discs were infested with a mite population of mixed ages. The samples were assessed for mortality on mixed population (mobile stages) 8 days after infestation.

Euschistus heros = Euschistus heros (neotropical brown stink bug), sprayed soybean leaves; settings: 120 h, application rate 200 ppm, N2 nymphs, 5 days after infestation, read-out: effect in at least one of the two categories (mortality or growth inhibition)
Outline: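 Scored 5 days post-infestation versus untreated controls, for both mortality and growth inhibition: N2 nymphs placed on agar-mounted soybean leaves previously sprayed at 200 ppm with aqueous test solutions from DMSO stocks and left to dry.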

Myzus persicae = Myzus persicae (green peach aphid): feeding/contact activity; settings: 144 h, application rate 200 ppm, aphid population of mixed ages, 6 days after infestation, read-out: mortality
Procedure: (§1) Sunflower leaf discs were placed onto agar in a 24-well microtiter plate and sprayed with aqueous test solutions prepared from 10'000 ppm DMSO stock solutions. After drying, the leaf discs were infested with an aphid population of mixed ages. The samples were assessed for mortality 6 days after infestation.

Diabrotica balteata = Diabrotica balteata (corn root worm), sprayed maize sprouts; settings: 96 h, application rate 200 ppm, L2 larvae, 4 days after infestation, read-out: effect in at least one of the two categories (mortality or growth inhibition)
Outline: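 Read-out at 4 days post-infestation: mortality and growth inhibition relative to untreated samples. Test solutions (200 ppm, from DMSO stocks) were sprayed onto agar-held maize sprouts, which after drying received 6–10 L2 larvae per well.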

Spodoptera littoralis [2] = test: Spodoptera littoralis (Egyptian cotton leaf worm), uptake by lettuce roots from agar; settings: 144 h, read-out: effect in at least one of the three categories (mortality, anti-feeding, or growth inhibition);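 note: 12.5 ppm test rate in agar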
Outline: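 Systemic test: Spodoptera eggs placed on lettuce leaves from seedlings raised 7 days on agar containing the compound (diluted from 10'000 ppm DMSO stock). Six days after infestation, larvae scored against untreated controls for mortality, feeding deterrence and growth inhibition.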

Thrips tabaci = Thrips tabaci (onion thrips): feeding/contact activity; settings: 144 h, application rate 200 ppm, Thrips population of mixed ages, 6 days after infestation, read-out: mortality
Procedure: as §1, with “on” for “onto”, “in” for “in a”, “plates” for “plate”, “drying” for “drying,”, “a Thrips” for “an aphid”

Plutella xylostella = Plutella xylostella (diamond back moth), artificial diet; settings: 120 h, application rate 200 ppm, L2 larvae, 5 days after infestation, read-out: effect in at least one of the two categories (mortality or growth inhibition)
Outline: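 L2 larvae (10-15 per well) fed on compound-treated, dried artificial diet; test solutions diluted in water from 10'000 ppm DMSO stocks. Readout 5 days post-infestation as mortality or growth inhibition versus untreated diet, with at least 80% effect at 200 ppm as threshold.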

Cc1cc(C2=NO[C@@](c3cc(Cl)cc(Cl)c3)(C(F)(F)F)C2)ccc1C(=O)NC1CON(S(C)(=O)=O)C1 (some centres unmarked) [Compound A40]
≥ 80%: mortality at 200 ppm (Spodoptera littoralis [1]) | mortality at 200 ppm (Tetranychus urticae) | percent effect (mortality or growth inhibition) at 200 ppm (Euschistus heros) | mortality at 200 ppm (Myzus persicae) | percent effect (mortality or growth inhibition) at 200 ppm (Diabrotica balteata) | percent control (mortality, anti-feedant effect or growth inhibition) at 12.5 ppm (Spodoptera littoralis [2]) | mortality at 200 ppm (Thrips tabaci) | percent effect (mortality or growth inhibition) at 200 ppm (Plutella xylostella)

CCNS(=O)(=O)N1CC(NC(=O)c2ccc(C3=NO[C@@](c4cc(Cl)c(F)c(Cl)c4)(C(F)(F)F)C3)cc2C)CO1 (some centres unmarked) [Compound A95]
≥ 80%: mortality at 200 ppm (Spodoptera littoralis [1]) | mortality at 200 ppm (Tetranychus urticae) | percent effect (mortality or growth inhibition) at 200 ppm (Euschistus heros) | mortality at 200 ppm (Myzus persicae) | percent effect (mortality or growth inhibition) at 200 ppm (Diabrotica balteata) | percent control (mortality, anti-feedant effect or growth inhibition) at 12.5 ppm (Spodoptera littoralis [2]) | mortality at 200 ppm (Thrips tabaci) | percent effect (mortality or growth inhibition) at 200 ppm (Plutella xylostella)

CCS(=O)(=O)N1CC(NC(=O)c2ccc(C3=NO[C@@](c4cc(Cl)c(Cl)c(Cl)c4)(C(F)(F)F)C3)cc2C)CO1 (stereo partly drawn) [Compound A27, N-(2-ethylsulfonylisoxazolidin-4-yl)-2-methyl-4-[(5S)-5-(3,4,5-trichlorophenyl)-5-(trifluoromethyl)-4H-isoxazol-3-yl]benzamide]
≥ 80%: mortality at 200 ppm (Spodoptera littoralis [1]) | mortality at 200 ppm (Tetranychus urticae) | percent effect (mortality or growth inhibition) at 200 ppm (Euschistus heros) | mortality at 200 ppm (Myzus persicae) | percent effect (mortality or growth inhibition) at 200 ppm (Diabrotica balteata) | percent control (mortality, anti-feedant effect or growth inhibition) at 12.5 ppm (Spodoptera littoralis [2]) | mortality at 200 ppm (Thrips tabaci) | percent effect (mortality or growth inhibition) at 200 ppm (Plutella xylostella)

CNS(=O)(=O)N1C[C@@H](NC(=O)c2ccc(C3=NO[C@@](c4cc(Cl)c(F)c(Cl)c4)(C(F)(F)F)C3)cc2C)CO1 [Compound A137, 4-[(5S)-5-(3,5-dichloro-4-fluoro-phenyl)-5-(trifluoromethyl)-4H-isoxazol-3-yl]-2-methyl-N-[(4R)-2-(methylsulfamoyl)isoxazolidin-4-yl]benzamide]
≥ 80%: mortality at 200 ppm (Spodoptera littoralis [1]) | mortality at 200 ppm (Tetranychus urticae) | percent effect (mortality or growth inhibition) at 200 ppm (Euschistus heros) | mortality at 200 ppm (Myzus persicae) | percent effect (mortality or growth inhibition) at 200 ppm (Diabrotica balteata) | percent control (mortality, anti-feedant effect or growth inhibition) at 12.5 ppm (Spodoptera littoralis [2]) | mortality at 200 ppm (Thrips tabaci) | percent effect (mortality or growth inhibition) at 200 ppm (Plutella xylostella)

CNS(=O)(=O)N1CC(NC(=O)c2ccc(C3=NO[C@@](c4cc(Cl)c(Cl)c(Cl)c4)(C(F)(F)F)C3)cc2C)CO1 (stereo partly drawn) [Compound A69, 2-methyl-N-[2-(methylsulfamoyl)isoxazolidin-4-yl]-4-[(5S)-5-(3,4,5-trichlorophenyl)-5-(trifluoromethyl)-4H-isoxazol-3-yl]benzamide]
≥ 80%: mortality at 200 ppm (Spodoptera littoralis [1]) | mortality at 200 ppm (Tetranychus urticae) | percent effect (mortality or growth inhibition) at 200 ppm (Euschistus heros) | mortality at 200 ppm (Myzus persicae) | percent effect (mortality or growth inhibition) at 200 ppm (Diabrotica balteata) | percent control (mortality, anti-feedant effect or growth inhibition) at 12.5 ppm (Spodoptera littoralis [2]) | mortality at 200 ppm (Thrips tabaci) | percent effect (mortality or growth inhibition) at 200 ppm (Plutella xylostella)

Cc1cc(C2=NO[C@@](c3cc(Cl)c(F)c(Cl)c3)(C(F)(F)F)C2)ccc1C(=O)NC1CON(S(=O)(=O)NC(C)(C)C)C1 (some centres unmarked) [Compound A97]
≥ 80%: mortality at 200 ppm (Spodoptera littoralis [1]) | mortality at 200 ppm (Tetranychus urticae) | percent effect (mortality or growth inhibition) at 200 ppm (Euschistus heros) | mortality at 200 ppm (Myzus persicae) | percent effect (mortality or growth inhibition) at 200 ppm (Diabrotica balteata) | percent control (mortality, anti-feedant effect or growth inhibition) at 12.5 ppm (Spodoptera littoralis [2]) | mortality at 200 ppm (Thrips tabaci) | percent effect (mortality or growth inhibition) at 200 ppm (Plutella xylostella)

CCOC(=O)N(C)S(=O)(=O)N1CC(NC(=O)c2ccc(C3=NO[C@@](c4cc(Cl)c(F)c(Cl)c4)(C(F)(F)F)C3)cc2C)CO1 (some centres unmarked) [Compound A76]
≥ 80%: mortality at 200 ppm (Spodoptera littoralis [1]) | mortality at 200 ppm (Tetranychus urticae) | percent effect (mortality or growth inhibition) at 200 ppm (Euschistus heros) | mortality at 200 ppm (Myzus persicae) | percent effect (mortality or growth inhibition) at 200 ppm (Diabrotica balteata) | percent control (mortality, anti-feedant effect or growth inhibition) at 12.5 ppm (Spodoptera littoralis [2]) | mortality at 200 ppm (Thrips tabaci) | percent effect (mortality or growth inhibition) at 200 ppm (Plutella xylostella)

Cc1cc(C2=NOC(c3cc(Cl)cc(Cl)c3)(C(F)(F)F)C2)ccc1C(=O)NC1CON(S(C)(=O)=O)C1 (centres unmarked) [Compound A33, 4-[5-(3,5-dichlorophenyl)-5-(trifluoromethyl)-4H-isoxazol-3-yl]-2-methyl-N-(2-methylsulfonylisoxazolidin-4-yl)benzamide]
≥ 80%: mortality at 200 ppm (Spodoptera littoralis [1]) | mortality at 200 ppm (Tetranychus urticae) | percent effect (mortality or growth inhibition) at 200 ppm (Euschistus heros) | mortality at 200 ppm (Myzus persicae) | percent effect (mortality or growth inhibition) at 200 ppm (Diabrotica balteata) | percent control (mortality, anti-feedant effect or growth inhibition) at 12.5 ppm (Spodoptera littoralis [2]) | mortality at 200 ppm (Thrips tabaci) | percent effect (mortality or growth inhibition) at 200 ppm (Plutella xylostella)

Cc1cc(C2=NO[C@@](c3cc(Cl)c(Cl)c(Cl)c3)(C(F)(F)F)C2)ccc1C(=O)NC1CON(S(N)(=O)=O)C1 (some centres unmarked) [Compound A35]
≥ 80%: mortality at 200 ppm (Spodoptera littoralis [1]) | mortality at 200 ppm (Tetranychus urticae) | percent effect (mortality or growth inhibition) at 200 ppm (Euschistus heros) | mortality at 200 ppm (Myzus persicae) | percent effect (mortality or growth inhibition) at 200 ppm (Diabrotica balteata) | percent control (mortality, anti-feedant effect or growth inhibition) at 12.5 ppm (Spodoptera littoralis [2]) | mortality at 200 ppm (Thrips tabaci) | percent effect (mortality or growth inhibition) at 200 ppm (Plutella xylostella)

CCS(=O)(=O)N1C[C@@H](NC(=O)c2ccc(C3=NO[C@@](c4cc(Cl)cc(C(F)(F)F)c4)(C(F)(F)F)C3)cc2Cl)CO1 [Compound A122]
≥ 80%: mortality at 200 ppm (Spodoptera littoralis [1]) | mortality at 200 ppm (Tetranychus urticae) | percent effect (mortality or growth inhibition) at 200 ppm (Euschistus heros) | mortality at 200 ppm (Myzus persicae) | percent effect (mortality or growth inhibition) at 200 ppm (Diabrotica balteata) | percent control (mortality, anti-feedant effect or growth inhibition) at 12.5 ppm (Spodoptera littoralis [2]) | mortality at 200 ppm (Thrips tabaci) | percent effect (mortality or growth inhibition) at 200 ppm (Plutella xylostella)

CCN(C)S(=O)(=O)N1C[C@@H](NC(=O)c2ccc(C3=NO[C@@](c4cc(Cl)c(F)c(Cl)c4)(C(F)(F)F)C3)cc2C)CO1 [Compound A140, 4-[(5S)-5-(3,5-dichloro-4-fluoro-phenyl)-5-(trifluoromethyl)-4H-isoxazol-3-yl]-N-[(4R)-2-[ethyl(methyl)sulfamoyl]isoxazolidin-4-yl]-2-methyl-benzamide]
≥ 80%: mortality at 200 ppm (Spodoptera littoralis [1]) | mortality at 200 ppm (Tetranychus urticae) | percent effect (mortality or growth inhibition) at 200 ppm (Euschistus heros) | mortality at 200 ppm (Myzus persicae) | percent effect (mortality or growth inhibition) at 200 ppm (Diabrotica balteata) | percent control (mortality, anti-feedant effect or growth inhibition) at 12.5 ppm (Spodoptera littoralis [2]) | mortality at 200 ppm (Thrips tabaci) | percent effect (mortality or growth inhibition) at 200 ppm (Plutella xylostella)

CNS(=O)(=O)N1C[C@@H](NC(=O)c2ccc(C3=NO[C@@](c4cc(Cl)c(Cl)c(Cl)c4)(C(F)(F)F)C3)cc2Cl)CO1 [Compound A126, 2-chloro-N-[(4R)-2-(methylsulfamoyl)isoxazolidin-4-yl]-4-[(5S)-5-(3,4,5-trichlorophenyl)-5-(trifluoromethyl)-4H-isoxazol-3-yl]benzamide]
≥ 80%: mortality at 200 ppm (Spodoptera littoralis [1]) | mortality at 200 ppm (Tetranychus urticae) | percent effect (mortality or growth inhibition) at 200 ppm (Euschistus heros) | mortality at 200 ppm (Myzus persicae) | percent effect (mortality or growth inhibition) at 200 ppm (Diabrotica balteata) | percent control (mortality, anti-feedant effect or growth inhibition) at 12.5 ppm (Spodoptera littoralis [2]) | mortality at 200 ppm (Thrips tabaci) | percent effect (mortality or growth inhibition) at 200 ppm (Plutella xylostella)

CCNS(=O)(=O)N1C[C@@H](NC(=O)c2ccc(C3=NO[C@@](c4cc(Cl)cc(Cl)c4)(C(F)(F)F)C3)cc2Cl)CO1 [Compound A113, 2-chloro-4-[(5S)-5-(3,5-dichlorophenyl)-5-(trifluoromethyl)-4H-isoxazol-3-yl]-N-[(4R)-2-(ethylsulfamoyl)isoxazolidin-4-yl]benzamide]
≥ 80%: mortality at 200 ppm (Spodoptera littoralis [1]) | mortality at 200 ppm (Tetranychus urticae) | percent effect (mortality or growth inhibition) at 200 ppm (Euschistus heros) | mortality at 200 ppm (Myzus persicae) | percent effect (mortality or growth inhibition) at 200 ppm (Diabrotica balteata) | percent control (mortality, anti-feedant effect or growth inhibition) at 12.5 ppm (Spodoptera littoralis [2]) | mortality at 200 ppm (Thrips tabaci) | percent effect (mortality or growth inhibition) at 200 ppm (Plutella xylostella)
